Experimental data from ChEMBL document CHEMBL1136416, “Identification of a stable chymase inhibitor using a pharmacophore-Based database search” (Bioorg Med Chem Lett, 2003).
Values joined by “and” are separate entries in the source; they are usually repeats but may differ in a detail not shown here. Equal entries are not always repeated.

Biological target: T1, Chymase (Homo sapiens) (UniProt P23946)
T1 sequence (whole entry): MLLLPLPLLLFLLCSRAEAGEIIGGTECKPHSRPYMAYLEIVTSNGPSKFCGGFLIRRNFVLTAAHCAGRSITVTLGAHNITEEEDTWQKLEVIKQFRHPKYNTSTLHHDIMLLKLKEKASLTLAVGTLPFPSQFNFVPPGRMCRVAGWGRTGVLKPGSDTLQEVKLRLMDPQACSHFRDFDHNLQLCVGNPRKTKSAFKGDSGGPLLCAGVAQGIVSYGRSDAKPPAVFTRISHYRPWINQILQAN
Assay: Inhibitory activity against serine protease chymase was determined at 1 uM
Conditions: not given

inhibition | SMILES
> 30% | CCCS(=O)(=O)c1ccc(NS(=O)(=O)c2sc3ccc(Cl)cc3c2C)cc1
> 30% | O=C(Oc1ccc(Cl)cc1)c1cnc(C2COc3ccccc3O2)s1 (centres undefined)
36.5% and > 30% | CSc1[nH]nc(NC(=O)c2ccc(Cl)cc2)c1S(=O)(=O)c1ccc(Cl)cc1

Biological target: T1, Chymase (Homo sapiens)
Assay: Inhibitory activity against serine protease chymase was determined
Conditions: not given

Inhibitory activity | SMILES
8.91 µM | Cc1ccc(/C=C2\SC(C)(C)N(C(=O)c3ccc4ccccc4c3)C2=O)o1
176 µM | O=C1c2ccccc2C(=O)N1S(=O)(=O)c1ccc2ccccc2c1
0.61 µM | COC(=O)c1ccc(C(=O)n2cnc3cc4ccccc4cc3c2=O)cc1
14 µM | O=C(Nc1nnc(Sc2nc3ccccc3s2)s1)C(Cl)(Cl)Cl
1.34 µM | O=C(Nc1nnc(Sc2nc3ccccc3s2)s1)c1ccccc1
27 µM | O=C(Nc1nnc(SCc2nc3ccccc3s2)s1)c1ccc(Cl)cc1
0.308 µM | O=C(Nc1nnc(Sc2nc3ccccc3s2)s1)c1ccc(Cl)cc1
3.24 µM | Cc1ccc(C(=O)Sc2nnc(SC(=O)c3ccc(C)cc3)s2)cc1
0.691 µM | O=C1S/C(=C/c2ccc(O)cc2)C(=O)N1S(=O)(=O)c1ccc2ccccc2c1
87 µM | Cc1ccc(-c2nnc(NC(=O)c3ccc4ccccc4c3)s2)o1
48 µM | Cc1ccc(C(=O)Nc2nnc(SC(=O)c3ccc(C)cc3)s2)cc1
4.54 µM | Cc1ccc(/C=C2\SCCN(C(=O)c3ccc4ccccc4c3)C2=O)o1
3.6 µM | O=C(Oc1ccccc1)N1C(=O)S/C(=C\c2ccco2)C1=O
321 µM | Clc1ccc(CNc2nnc(Sc3nc4ccccc4s3)s2)cc1
608 µM | O=C1ON(S(=O)(=O)c2ccc3ccccc3c2)C(=O)/C1=C/c1ccc(F)cc1
53 µM | O=C1ON(C(=O)c2ccc3ccccc3c2)C(=O)/C1=C/c1ccc(O)c(O)c1
24 µM | Cc1ccc(/C=C2\SC(=O)N(CS(=O)(=O)c3ccc4ccccc4c3)C2=O)o1
75 µM | Cc1ccc(C(=O)Nc2nnc(C(=O)c3ccccc3)s2)cc1
141 µM | Cc1ccc(/C=C2\SC(=O)N(CSc3ccc4ccccc4c3)C2=O)o1
273 µM | O=C1SC(Cc2ccc3ccccc3c2)C(=O)N1Cc1ccoc1 (centres undefined)
4.22 µM | COC(=O)C(c1ccc2ccccc2c1)N1C(=O)S/C(=C\c2ccc(C)o2)C1=O (centres undefined)
190 µM | Cc1ccc(/C=C2\SC(=O)N(Cc3ccc4ccccc4c3)C2=O)o1
0.683 µM | Cc1ccc(/C=C2\SC(=O)N(C(=O)c3cccc(-c4ccccc4)c3)C2=O)o1
0.097 µM | Cc1ccc(/C=C2\SC(=O)N(C(=O)c3ccc4ccccc4c3)C2=O)o1
0.081 µM | O=C1S/C(=C\c2ccsc2)C(=O)N1C(=O)c1ccc2ccccc2c1
3.46 µM | O=c1n(S(=O)(=O)c2ccc3ccccc3c2)c2ccccc2n1S(=O)(=O)c1ccc2ccccc2c1

Same assay, conditions: concentration not given here

inhibition | SMILES
17.8% | O=C(Oc1ccc(Cl)cc1)c1cnc(C2COc3ccccc3O2)s1 (centres undefined)

Biological target: T2, Chymase (Homo sapiens, UniProt P23946)
T2 sequence (P23946 whole entry): T1 sequence (whole entry)
Assay: Inhibitory concentration against serine protease chymase was determined
Conditions: not given

IC50 | SMILES
909 nM | CCCS(=O)(=O)c1ccc(NS(=O)(=O)c2sc3ccc(Cl)cc3c2C)cc1

Test system: not listed separately
Assay: Percent remaining in human plasma after incubation for 60 min at 37 C.
Assay type: ADME, cell-free
Conditions: read-out: Stability

remaining at 1 h | SMILES
6.4% | CSc1[nH]nc(NC(=O)c2ccc(Cl)cc2)c1S(=O)(=O)c1ccc(Cl)cc1

Test system: not listed separately
Assay: Percent compound remaining in human plasma after incubation for 60 min at 37 C.
Assay type: ADME, cell-free
Conditions: read-out: Stability

remaining at 1 h | SMILES
100% | CCCS(=O)(=O)c1ccc(NS(=O)(=O)c2sc3ccc(Cl)cc3c2C)cc1
11.8% | O=C(Oc1ccc(Cl)cc1)c1cnc(C2COc3ccccc3O2)s1 (centres undefined)
